Laboratory results reported in patent US4118506A, “Pharmaceutical compositions containing 1,3-dithiol-2-ylidene malonate derivatives” (Nihon Nohyaku Co., Ltd., priority 1976, dated 1978).

Experiments:
[1] = test system: fatty liver induced by ethionine; test: effect on fatty liver, ethionine model; format: in vivo, mouse (dd-strain); conditions: 250 mg/kg oral
Source text: There are known many factors inducing fatty liver. But, the fatty liver is grouped into a couple of patterns from the mechanism of lipid accumulation or metabolism of lipoprotein in the liver. Ethionine is a typical example which induces first pattern of fatty liver. It inhibits RNA and protein synthesis and destroys polysome of the liver cell. Fatty liver is induced by inhibition of the protein synthesis and disturbance of lipoprotein secretion.
Usually, fatty liver is closely related to the accumulation of triglyceride in the liver. In the present example, the degree of fatty liver and protective or therapeutic effect on the fatty liver was evaluated by measurement of triglyceride content in the liver.
The compounds of this invention and methionine were independently dissolved or suspended into olive oil and administered orally to the male mouse (4 week-old dd-strain) at the dose of 250 mg/kg. One hour before it, simultaneously with it or one hour after it, ethionine dissolved in equimolar NaOH solution was administered intraperitoneally at the dose of 200 mg/kg. Twenty four hours after the administration of ethionine, the animals were sacrificed and triglyceride content in the liver was determined by chromotropic acid method.

[2] = test system: acute liver damage induced by bromobenzene; test: protective effect on acute liver damage associated with centrilobular necrosis, bromobenzene model; format: in vivo, rat (SD)
Protocol: (§1) Bromobenzene (hereinafter abbreviated as BB), Dimethylnitrosamine (hereinafter abbreviated as DMN) and chloroform (hereinafter abbreviated as CF) resemble carbon tetrachloride in inducing liver damage associated with centrilobular necrosis.
(§2) Test compound or anethol trithion was orally administered to animal at the dose of 100 mg/kg. Twenty four hours after it (in the case of dimethylnitrosamine, exceptionally fifteen hours after it) the animals were sacrificed and blood samples were collected. Indices of hepatotoxicity adoptable in each chemical were measured, from which the efficacy of the compound was evaluated.
BB male rat 0.75 oral p-GPT activity

[3] = test system: acute liver damage induced by D-galactosamine; test: protective effect on acute hepatitis with mesenchymal reaction and discrete lobular necrosis, D-galactosamine model; format: in vivo, rat (SD strain); conditions: 250 mg/kg oral 6 h before D-galactosamine i.p.
Protocol: D-Galactosamine is a compound which induces a discrete lobular necrosis associated with mesenchymal reaction similar to the change observed in human viral hepatitis, so that it is frequently used in producing a model for viral hepatitis.
The compound of this invention or anethol trithion was administered orally to the male rat (SD strain) at the dose of 250 mg/kg. Six hours after it, D-galactosamine was intraperitoneally administered at the dose of 600 mg/kg. Four hours after it, an additional 300 mg/kg was administered intraperitoneally. Eight hours after it, the animals were sacrificed to collect the blood samples. P-GPT activity and triglyceride in the liver were measured to evaluate the effect of the compound of this invention.

[4] = test system: acute liver damage induced by allyl alcohol; test: protective effect on acute liver damage associated with periportal necrosis, allyl alcohol model; format: in vivo, mouse (dd strain); conditions: 250 mg/kg oral 6 h before allyl alcohol 0.075 ml/kg oral; 24 h after
Protocol: The compound of this invention or anethol trithion was orally administered to the male mouse (4 week/old, dd strain) at the dose of 250 mg/kg. Six hours after it, allyl alcohol was orally administered at the dose of 0.075 ml/kg. Twenty four hours after it, the animals were sacrificed to collect blood samples.

[5] = test system: alcohol metabolic function of liver; test: effect on concentration of ethyl alcohol in the blood; format: in vivo, mouse; conditions: 250 mg/kg oral 6 h before ethanol 1,000 mg/kg
Protocol: The test compounds are dissolved or suspended in olive oil and administered orally at the dose of 250 mg/kg to the mice. After 6 hours, 1,000 mg/kg of ethyl alcohol was given orally. Blood was taken in a capillary from caudal vein at the time indicated in the results. The plasma was obtained by centrifugation. The concentration of ethyl alcohol in the plasma was measured by FID type gas liquid chromatography. Five mice were used for each group.

[6] = test system: liver injury and chronic hepatitis; test: clinical test on liver injury and chronic hepatitis; format: in vivo, human; conditions: for p-GOT activity / p-GPT activity: tablets of Example 6, 12 a day
Protocol: Six patients were used for the test. One was diagnosed as liver injury caused by administration of PAS (p-aminosalicyclic acid) for three months and five were diagnosed as chronic hepatitis by doctor.
The tablets obtained in Example 6 were orally administered to the respective patients at the dose of twelve tablets a day (four tablets after every meal).
Curing effects on the liver injury and chronic hepatitis after administration were evaluated by measuring plasma transaminase activity (p-GPT and p-GOT).

[7] = test system: acute liver damage induced by chloroform; test: protective effect on acute liver damage associated with centrilobular necrosis, chloroform model; format: in vivo, mouse (dd); conditions: chloroform 0.2 ml/kg oral; 100 mg/kg oral 6 h before; 24 h after
Protocol: as §1, §2
CF male mouse 0.2 oral p-GPT activity

[8] = bromobenzene 0.75 ml/kg oral, 100 mg/kg oral 6 h before, 24 h after
[9] = patient 1, liver injury (PAS), person, before administration
[10] = patient 2, chronic hepatitis, before administration
[11] = patient 3, chronic hepatitis, before administration
[12] = patient 4, chronic hepatitis, before administration
[13] = patient 5, chronic hepatitis, before administration
[14] = patient 6, chronic hepatitis, before administration

`CC(C)OC(=O)C(C(=O)OC(C)C)=C1SC=CS1` [Compound 4, diisopropyl 1,3-dithiol-2-ylidene malonate] was tested, and the Triglyceride ([1]; 1 hr after ethionine 200 mg/kg i.p.) was 10.0 ± 1.15 mg/g-liver, the Triglyceride ([1]; 1 hr before ethionine 200 mg/kg i.p.) was 9.1 ± 1.15 mg/g-liver and the Triglyceride ([1]; simultaneously with (0 hr) ethionine 200 mg/kg i.p.) was 5.4 ± 0.61 mg/g-liver. The indices of hepatotoxicity ([2]; BB, DMN and CF models together, Table 4) was “normalized the indices of hepatotoxicity”, the BSP [2, 8] was 10.6 ± 4.5 mg/dL and the p-GPT [2, 8] was 23 ± 3.7 Karmen unit. The “Triglyceride in the liver” value [3] was 4.4 ± 0.68 mg/g, the p-GPT [3] was 51 ± 15 Karmen unit and the BSP [4] was 17 ± 3.2. The “Concentration of Ethyl alcohol in Plasma” value ([5]; 0 min) was 25 ± 12 ppm, the “Concentration of Ethyl alcohol in Plasma” value ([5]; 5 min) was 582 ± 143 ppm and the “Concentration of Ethyl alcohol in Plasma” value ([5]; 15 min) was 468 ± 30 ppm. For the same compound, the “Concentration of Ethyl alcohol in Plasma” value ([5]; 30 min) was 220 ± 87 ppm, the “Concentration of Ethyl alcohol in Plasma” value ([5]; 60 min) was 29 ± 17 ppm and the “Concentration of Ethyl alcohol in Plasma” value ([5]; 120 min) was “not detected”. The “plasma transaminase activity (p-GPT and p-GOT)” value ([6]; in words) was “useful for normalizing plasma transaminase activity”, the p-GOT activity ([6]; patient 1, after 3 days) was 270 Karmen Unit and the p-GPT activity ([6]; patient 1, after 3 days) was 215 Karmen Unit. The p-GOT activity ([6]; patient 1, after 4 days) was 231 Karmen Unit, the p-GPT activity ([6]; patient 1, after 4 days) was 169 Karmen Unit and the p-GOT activity ([6]; patient 1, after 7 days) was 81 Karmen Unit. The p-GPT activity ([6]; patient 1, after 7 days) was 94 Karmen Unit, the p-GOT activity ([6]; patient 1, after 12 days) was 36 Karmen Unit and the p-GPT activity ([6]; patient 1, after 12 days) was 41 Karmen Unit. The p-GOT activity ([6]; patient 1, after 15 days) was 37 Karmen Unit, the p-GPT activity ([6]; patient 1, after 15 days) was 24 Karmen Unit and the p-GOT activity ([6]; patient 1, after 19 days) was 24 Karmen Unit. The p-GPT activity ([6]; patient 1, after 19 days) was 21 Karmen Unit, the p-GOT activity [6, 9] was 270 Karmen Unit and the p-GPT activity [6, 9] was 270 Karmen Unit. It also gave a p-GOT activity ([6]; patient 2, after 14 days) of 68 Karmen Unit, a p-GPT activity ([6]; patient 2, after 14 days) of 62 Karmen Unit and a p-GOT activity ([6]; patient 2, after 35 days) of 24 Karmen Unit. The p-GPT activity ([6]; patient 2, after 35 days) was 43 Karmen Unit, the p-GOT activity [6, 10] was 270 Karmen Unit and the p-GPT activity [6, 10] was 270 Karmen Unit. It also gave a p-GOT activity ([6]; patient 3, after 14 days) of 100 Karmen Unit, a p-GPT activity ([6]; patient 3, after 14 days) of 96 Karmen Unit and a p-GOT activity ([6]; patient 3, after 56 days) of 77 Karmen Unit. The p-GPT activity ([6]; patient 3, after 56 days) was 87 Karmen Unit, the p-GOT activity [6, 11] was 145 Karmen Unit and the p-GPT activity [6, 11] was 163 Karmen Unit. The p-GOT activity ([6]; patient 4, after 2 days) was 60 Karmen Unit, the p-GPT activity ([6]; patient 4, after 2 days) was 113 Karmen Unit and the p-GOT activity ([6]; patient 4, after 9 days) was 68 Karmen Unit. It also gave a p-GPT activity ([6]; patient 4, after 9 days) of 94 Karmen Unit, a p-GOT activity ([6]; patient 4, after 16 days) of 49 Karmen Unit and a p-GPT activity ([6]; patient 4, after 16 days) of 62 Karmen Unit. It also gave a p-GOT activity ([6]; patient 4, after 62 days) of 33 Karmen Unit, a p-GPT activity ([6]; patient 4, after 62 days) of 33 Karmen Unit and a p-GOT activity [6, 12] of 80 Karmen Unit. For the same compound, the p-GPT activity [6, 12] was 185 Karmen Unit, the p-GOT activity ([6]; patient 5, after 8 days) was 78 Karmen Unit and the p-GPT activity ([6]; patient 5, after 8 days) was 119 Karmen Unit. The p-GOT activity ([6]; patient 5, after 28 days) was 65 Karmen Unit, the p-GPT activity ([6]; patient 5, after 28 days) was 79 Karmen Unit and the p-GOT activity ([6]; patient 5, after 30 days) was 57 Karmen Unit. The p-GPT activity ([6]; patient 5, after 30 days) was 57 Karmen Unit, the p-GOT activity [6, 13] was 95 Karmen Unit and the p-GPT activity [6, 13] was 94 Karmen Unit. For the same compound, the p-GOT activity ([6]; patient 6, after 14 days) was 108 Karmen Unit, the p-GPT activity ([6]; patient 6, after 14 days) was 306 Karmen Unit and the p-GOT activity ([6]; patient 6, after 23 days) was 48 Karmen Unit. For the same compound, the p-GPT activity ([6]; patient 6, after 23 days) was 121 Karmen Unit, the p-GOT activity ([6]; patient 6, after 36 days) was 33 Karmen Unit and the p-GPT activity ([6]; patient 6, after 36 days) was 65 Karmen Unit. The p-GOT activity ([6]; patient 6, after 56 days) was 24 Karmen Unit, the p-GPT activity ([6]; patient 6, after 56 days) was 53 Karmen Unit and the p-GOT activity ([6]; patient 6, after 82 days) was 24 Karmen Unit. The p-GPT activity ([6]; patient 6, after 82 days) was 39 Karmen Unit, the p-GOT activity [6, 14] was 83 Karmen Unit and the p-GPT activity [6, 14] was 354 Karmen Unit. It also gave a p-GPT [7] of 58 ± 15 Karmen unit.
